From ChEMBL document CHEMBL5052856, “Inhibitors of apol1 and methods of using same” (2021)

Columns and labels:
Apolipoprotein L1 = Apolipoprotein L1 (Homo sapiens, UniProt O14791); assay: Inhibition of APOL1 G1 variant in human HEK293-T-REx cells measured by Thallium assay; format: cell-based
[1] = tested on: Trypanosoma brucei brucei; assay: Antitrypanosomal activity against Trypanosoma brucei brucei assessed as trypanosome lysis using recombinant APOL1 protein G1 variant and measured by Alamar blue based fluoresence assay; format: functional, organism-based

| Compound | IC50 (Apolipoprotein L1) | IC50 [1] |
| --- | --- | --- |
| O=C(NCCn1cncn1)[C@H]1C[C@H](c2c(-c3ccc(F)cc3)[nH]c3c(F)cc(F)cc32)C1 | < 250 nM | < 250 nM |
| NC(=O)[C@@H](CO)NC(=O)[C@H]1C[C@H](c2c(-c3ccc(F)cc3)[nH]c3c(F)cc(F)cc32)C1 | < 250 nM | < 250 nM |
| C[C@H](O)CNC(=O)[C@H]1C[C@H](c2c(-c3ccc(F)cc3)[nH]c3c(F)cc(F)cc32)C1 | 0.25 nM | 250 nM |
| O=C([C@H]1C[C@H](c2c(-c3ccc(F)cc3)[nH]c3c(F)cc(F)cc32)C1)N1CCCC(CCO)C1 (stereo not given in full) | > 1000 nM | > 1000 nM |
| COC1CC1NC(=O)[C@H]1C[C@H](c2c(-c3ccc(F)cc3)[nH]c3c(F)cc(F)cc32)C1 (stereo not given in full) | > 1000 nM | > 1000 nM |
| O=C(NC[C@H](O)CO)[C@H]1C[C@H](c2c(-c3ccc(F)cc3)[nH]c3c(F)cc(F)cc32)C1 | > 1000 nM | 250 nM |
| O=C([C@H]1C[C@H](c2c(-c3ccc(F)cc3)[nH]c3c(F)cc(F)cc32)C1)N1CCN(CCO)CC1 | > 1000 nM | > 1000 nM |
| O=C1NCC[C@@H]1NC(=O)[C@H]1C[C@H](c2c(-c3ccc(F)cc3)[nH]c3c(F)cc(F)cc32)C1 | 0.25 nM | 250 nM |
| O=C(NC1(CO)CCC1)[C@H]1C[C@H](c2c(-c3ccc(F)cc3)[nH]c3c(F)cc(F)cc32)C1 | < 250 nM | < 250 nM |
| CC(O)C1CCN(C(=O)[C@H]2C[C@H](c3c(-c4ccc(F)cc4)[nH]c4c(F)cc(F)cc43)C2)CC1 (stereo not given in full) | > 1000 nM | > 1000 nM |
| O=C([C@H]1C[C@H](c2c(-c3ccc(F)cc3)[nH]c3c(F)cc(F)cc32)C1)N1CCN[C@H](CO)C1 | > 1000 nM | 250 nM |
| C[C@H]1CN(C(=O)[C@H]2C[C@H](c3c(-c4ccc(F)cc4)[nH]c4c(F)cc(F)cc43)C2)CC[C@@H]1O | > 1000 nM | > 1000 nM |
| Cn1ccc(CNC(=O)[C@H]2C[C@H](c3c(-c4ccc(F)cc4)[nH]c4c(F)cc(F)cc43)C2)n1 | 0.25 nM | < 250 nM |
| O=C([C@H]1C[C@H](c2c(-c3ccc(F)cc3)[nH]c3c(F)cc(F)cc32)C1)N1CCC2(COC2)C1 | > 1000 nM | > 1000 nM |
| COCC1(NC(=O)[C@H]2C[C@H](c3c(-c4ccc(F)cc4)[nH]c4c(F)cc(F)cc43)C2)CC1 | < 250 nM | < 250 nM |
| CC(N)(C(=O)NC(=O)[C@H]1C[C@H](c2c(-c3ccc(F)cc3)[nH]c3c(F)cc(F)cc32)C1)C(F)(F)F (stereo not given in full) | > 1000 nM | 250 nM |
| O=C([C@H]1C[C@H](c2c(-c3ccc(F)cc3)[nH]c3c(F)cc(F)cc32)C1)N1C2CCC(C2)C1CO (stereo not given in full) | > 1000 nM | > 1000 nM |
| O=C(NCc1cnoc1)[C@H]1C[C@H](c2c(-c3ccc(F)cc3)[nH]c3c(F)cc(F)cc32)C1 | 0.25 nM | < 250 nM |
| CN(C(=O)[C@H]1C[C@H](c2c(-c3ccc(F)cc3)[nH]c3c(F)cc(F)cc32)C1)C1COCC1O (stereo not given in full) | > 1000 nM | > 1000 nM |
| O=C([C@H]1C[C@H](c2c(-c3ccc(F)cc3)[nH]c3c(F)cc(F)cc32)C1)N1CCO[C@H](CO)C1 | > 1000 nM | > 1000 nM |
| CC(O)(CO)CNC(=O)[C@H]1C[C@H](c2c(-c3ccc(F)cc3)[nH]c3c(F)cc(F)cc32)C1 (stereo not given in full) | > 1000 nM | > 1000 nM |
| Cc1cc(NC(=O)[C@H]2C[C@H](c3c(-c4ccc(F)cc4)[nH]c4c(F)cc(F)cc43)C2)no1 | 0.25 nM | 250 nM |

| Compound | IC50 (Apolipoprotein L1) | IC50 [1] |
| --- | --- | --- |
| COCC1(CNC(=O)[C@H]2C[C@H](c3c(-c4ccc(F)cc4)[nH]c4c(F)cc(F)cc43)C2)CC1 | > 1000 nM | > 1000 nM |
| NC(=O)CNC(=O)[C@H]1C[C@H](c2c(-c3ccc(F)cc3)[nH]c3c(F)cc(F)cc32)C1 | < 250 nM | < 250 nM |
| O=C(NC(CO)C1CC1)[C@H]1C[C@H](c2c(-c3ccc(F)cc3)[nH]c3c(F)cc(F)cc32)C1 (stereo not given in full) | 0.25 nM | 250 nM |
| O=C(NC1CNC[C@@H]1O)[C@H]1C[C@H](c2c(-c3ccc(F)cc3)[nH]c3c(F)cc(F)cc32)C1 (stereo not given in full) | > 1000 nM | 250 nM |
| CC(CO)(CO)NC(=O)[C@H]1C[C@H](c2c(-c3ccc(F)cc3)[nH]c3c(F)cc(F)cc32)C1 | < 250 nM | < 250 nM |
| Cc1nnc(CNC(=O)[C@H]2C[C@H](c3c(-c4ccc(F)cc4)[nH]c4c(F)cc(F)cc43)C2)o1 | 0.25 nM | < 250 nM |
| CC(C)N(CCO)C(=O)[C@H]1C[C@H](c2c(-c3ccc(F)cc3)[nH]c3c(F)cc(F)cc32)C1 | > 1000 nM | 250 nM |
| O=C(N[C@H](CO)C(F)(F)F)[C@H]1C[C@H](c2c(-c3ccc(F)cc3)[nH]c3c(F)cc(F)cc32)C1 | 0.25 nM | < 250 nM |
| C#CC(CO)NC(=O)[C@H]1C[C@H](c2c(-c3ccc(F)cc3)[nH]c3c(F)cc(F)cc32)C1 (stereo not given in full) | 0.25 nM | < 250 nM |
| CCC(CO)NC(=O)[C@H]1C[C@H](c2c(-c3ccc(F)cc3)[nH]c3c(F)cc(F)cc32)C1 (stereo not given in full) | < 250 nM | 250 nM |
| Cc1cc(CNC(=O)[C@H]2C[C@H](c3c(-c4ccc(F)cc4)[nH]c4c(F)cc(F)cc43)C2)on1 | > 1000 nM | 250 nM |
| O=C([C@H]1C[C@H](c2c(-c3ccc(F)cc3)[nH]c3c(F)cc(F)cc32)C1)N1CCC(O)(CO)CC1 | > 1000 nM | > 1000 nM |
| CC(O)CNC(=O)[C@H]1C[C@H](c2c(-c3ccc(F)cc3)[nH]c3c(F)cc(F)cc32)C1 (stereo not given in full) | 0.25 nM | 250 nM |
| CC1CC(NC(=O)[C@H]2C[C@H](c3c(-c4ccc(F)cc4)[nH]c4c(F)cc(F)cc43)C2)C(=O)N1 (stereo not given in full) | > 1000 nM | 250 nM |
| CC[C@@H](CO)NC(=O)[C@H]1C[C@H](c2c(-c3ccc(F)cc3)[nH]c3c(F)cc(F)cc32)C1 | 0.25 nM | < 250 nM |
| O=C(N[C@H]1CC[C@H](O)C1)[C@H]1C[C@H](c2c(-c3ccc(F)cc3)[nH]c3c(F)cc(F)cc32)C1 | > 1000 nM | > 1000 nM |
| CC(CO)CNC(=O)[C@H]1C[C@H](c2c(-c3ccc(F)cc3)[nH]c3c(F)cc(F)cc32)C1 (stereo not given in full) | 0.25 nM | 250 nM |
| O=C([C@H]1C[C@H](c2c(-c3ccc(F)cc3)[nH]c3c(F)cc(F)cc32)C1)N(CCOCCO)C1CCC1 | > 1000 nM | > 1000 nM |
| CCN(C(=O)[C@H]1C[C@H](c2c(-c3ccc(F)cc3)[nH]c3c(F)cc(F)cc32)C1)C(C)CO (stereo not given in full) | > 1000 nM | 250 nM |
| CN(CCO)C(=O)[C@H]1C[C@H](c2c(-c3ccc(F)cc3)[nH]c3c(F)cc(F)cc32)C1 | < 250 nM | < 250 nM |
| Cn1cnc(CNC(=O)[C@H]2C[C@H](c3c(-c4ccc(F)cc4)[nH]c4c(F)cc(F)cc43)C2)c1 | < 250 nM | < 250 nM |
| O=C(NC[C@@H](O)C(F)(F)F)[C@H]1C[C@H](c2c(-c3ccc(F)cc3)[nH]c3c(F)cc(F)cc32)C1 | 0.25 nM | 250 nM |

| Compound | IC50 (Apolipoprotein L1) | IC50 [1] |
| --- | --- | --- |
| C[C@H](NC(=O)[C@H]1C[C@H](c2c(-c3ccc(F)cc3)[nH]c3c(F)cc(F)cc32)C1)C(=O)N(C)C | 0.25 nM | 250 nM |
| CC(C)(NC(=O)[C@H]1C[C@H](c2c(-c3ccc(F)cc3)[nH]c3c(F)cc(F)cc32)C1)C(N)=O | 0.25 nM | < 250 nM |
| O=C([C@H]1C[C@H](c2c(-c3ccc(F)cc3)[nH]c3c(F)cc(F)cc32)C1)N1CC[C@@H]1CO | < 250 nM | < 250 nM |
| CC(NC(=O)[C@H]1C[C@H](c2c(-c3ccc(F)cc3)[nH]c3c(F)cc(F)cc32)C1)C(N)=O (stereo not given in full) | 0.25 nM | 250 nM |
| O=C([C@H]1C[C@H](c2c(-c3ccc(F)cc3)[nH]c3c(F)cc(F)cc32)C1)N1CCOC[C@H]1CO | > 1000 nM | 250 nM |
| O=C(NC[C@@H](O)CO)[C@H]1C[C@H](c2c(-c3ccc(F)cc3)[nH]c3c(F)cc(F)cc32)C1 | > 1000 nM | > 1000 nM |
| CN1CCN(C(=O)CNC(=O)[C@H]2C[C@H](c3c(-c4ccc(F)cc4)[nH]c4c(F)cc(F)cc43)C2)CC1 | > 1000 nM | > 1000 nM |
| O=C([C@H]1C[C@H](c2c(-c3ccc(F)cc3)[nH]c3c(F)cc(F)cc32)C1)N1C[C@@H]2[C@@H](CO)[C@@H]2C1 | > 1000 nM | > 1000 nM |
| O=C(N[C@H]1C[C@H](O)C1)[C@H]1C[C@H](c2c(-c3ccc(F)cc3)[nH]c3c(F)cc(F)cc32)C1 | > 1000 nM | 250 nM |
| C[C@@H](NC(=O)[C@H]1C[C@H](c2c(-c3ccc(F)cc3)[nH]c3c(F)cc(F)cc32)C1)C(N)=O | 0.25 nM | > 1000 nM |
| O=C(NCC1(O)COC1)[C@H]1C[C@H](c2c(-c3ccc(F)cc3)[nH]c3c(F)cc(F)cc32)C1 | 0.25 nM | 250 nM |
| O=C([C@H]1C[C@H](c2c(-c3ccc(F)cc3)[nH]c3c(F)cc(F)cc32)C1)N1CCCC1CCO (stereo not given in full) | > 1000 nM | 250 nM |
| O=C(N[C@@H](CO)C(F)(F)F)[C@H]1C[C@H](c2c(-c3ccc(F)cc3)[nH]c3c(F)cc(F)cc32)C1 | 0.25 nM | < 250 nM |
| CCC1(O)CN(C(=O)[C@H]2C[C@H](c3c(-c4ccc(F)cc4)[nH]c4c(F)cc(F)cc43)C2)C1 | > 1000 nM | > 1000 nM |
| Cc1noc(CNC(=O)[C@H]2C[C@H](c3c(-c4ccc(F)cc4)[nH]c4c(F)cc(F)cc43)C2)n1 | < 250 nM | < 250 nM |
| O=C(NCC1(O)CCCC1)[C@H]1C[C@H](c2c(-c3ccc(F)cc3)[nH]c3c(F)cc(F)cc32)C1 | > 1000 nM | > 1000 nM |
| CC(O)CN(C)C(=O)[C@H]1C[C@H](c2c(-c3ccc(F)cc3)[nH]c3c(F)cc(F)cc32)C1 (stereo not given in full) | > 1000 nM | 250 nM |
| CC(C#N)(CO)NC(=O)[C@H]1C[C@H](c2c(-c3ccc(F)cc3)[nH]c3c(F)cc(F)cc32)C1 (stereo not given in full) | 0.25 nM | < 250 nM |
| O=C1NCCC1CNC(=O)[C@H]1C[C@H](c2c(-c3ccc(F)cc3)[nH]c3c(F)cc(F)cc32)C1 (stereo not given in full) | > 1000 nM | > 1000 nM |
| O=C1CC[C@H](NC(=O)[C@H]2C[C@H](c3c(-c4ccc(F)cc4)[nH]c4c(F)cc(F)cc43)C2)C1 | 0.25 nM | 250 nM |
| O=C(OC1CN(C(=O)C2CC(c3c(-c4ccc(F)cc4)[nH]c4c(F)cc(F)cc34)C2)C1)C1CCOCC1 (trans isomer) | 0.25 nM | < 250 nM |
